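In this assay, cells in 96-well plates receive the compound at five concentrations for 48 hours. Endpoints are linearly interpolated between the surrounding concentrations. Abbreviation: GI50, concentration required for 50% inhibition of growth. TGI denotes the concentration required for complete inhibition of growth.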

In one assay the test system is RPMI-8226 leukemia. Put plainly: growth of human tumour cells (NCI), 48 h.
For `COc1c[c]([Hg][O]C(C)=O)c(OC)c(NC(=O)CC(C)=O)[c]1[Hg][O]C(C)=O`, the GI50 is 4.22 µM and the TGI was 33.4 µM.
In turn, `COC(=O)/C=C1\CCC(C)O1` (configuration not stated) yielded a TGI greater than 100 µM.
The same measure, in the same setting: the same measure for `O=C(/C=C/c1ccccc1Cl)NC1C=Nc2ccc([N+](=O)[O-])cc2NC1` (configuration not stated): greater than 100 µM; for `CCCO/S(=N\S(=O)(=O)c1ccccc1)c1ccccc1[N+](=O)[O-]` (configuration not stated): greater than 100 µM.
On the same count and under the same terms, the figure for `Cc1ccc(C)c(N=C2NC(=O)C(CC(=O)Nc3ccc(Cl)cc3Cl)S2)c1` (configuration not stated) is greater than 100 µM.
The same measure, in the same setting: the figure for `C/C(CC(=O)Nc1cccc(Cl)c1C)=N\NC(=O)c1ccncc1` is greater than 100 µM.
`Cc1cc(NS(=O)(=O)c2ccc(Nc3c4ccccc4nc4c(C(=O)N5CCN(CCO)CC5)ccc(Cl)c34)cc2)no1` gave a TGI greater than 100 µM.
For `COc1ccc(-c2ccc(-c3ccc(C(=N)N)s3)s2)cc1`, the GI50 was 0.221 µM and the TGI came to 0.469 µM.
`Cc1nc([N+](=O)[O-])cn1CC(=N)N`: the TGI is greater than 100 µM.
Same read-out and setting: the same measure for `COC(=O)/C=C/c1c(CC=C(C)C)ncn1C`: greater than 100 µM.
The same measure, in the same setting: the same measure for `CC(C)C(=O)Nc1nc2c(ncn2C2OC(CO)C(O)C2O)c(=O)[nH]1` (configuration not stated): greater than 100 µM; for `O=S(=O)(c1ccccc1)C1CN2OC1(S(=O)(=O)c1ccccc1)CC2c1ccc(Br)cc1` (configuration not stated): greater than 100 µM.
For the compound `O=Cc1ccc2c(c1-c1c(C=O)ccc3c1OCO3)OCO2`, the TGI was greater than 100 µM.
For `O=C1NC(=NCCc2cccc(Cl)c2)S/C1=C\c1ccc2ncccc2c1`, the GI50 was greater than 25 µM and the TGI was greater than 25 µM.
`CC(=O)O[C@H]1CCC2[C@@H]3CCC4Nc5[nH]ncc5C[C@]4(C)C3CC[C@@]21C` (some centres not stated) came in with a TGI greater than 100 µM.
The same measure, in the same setting: the same measure for `Cc1cc(C)nc(NS(=O)(=O)c2ccc(NC(=O)c3cccc4c(Nc5ccc(S(N)(=O)=O)cc5)c5ccccc5nc34)cc2)n1`: greater than 100 µM.

In a further assay the test system is SK-OV-3 ovarian. The assay is described as follows: growth of human tumour cells (NCI), 48 h.
`CC(C)C(=O)NS(=O)(=O)c1ccccc1`: the TGI was greater than 100 µM.
Same read-out and setting: the figure for `COC1(OC)CC2C(=O)N(Cc3ccccc3)C1C=C2S(=O)(=O)c1ccccc1` (configuration not stated) is greater than 100 µM.
With `CC(=O)[O][Ga]([Br])[O]C(C)=O`, the GI50 is greater than 100 µM and the TGI is greater than 100 µM.
For `COc1cc2c(OC)cc1CSCc1sc(C)c(c1Br)CSC2`, the TGI was greater than 100 µM.
The same measure, in the same setting: the same measure for `CC(C)N(C(=O)C12C3C4C1(I)C1C2C3(I)C41C(=O)N(C(C)C)C(C)C)C(C)C` (configuration not stated): greater than 100 µM; for `Cc1cccc(C)c1NC(=O)C(=O)C(C(=O)c1ccccc1-c1ccccc1)C1OC(=O)c2ccccc21` (configuration not stated): 87.6 µM.
Regarding `COc1cc2c(c(OC)c1OC)-c1ncc3cc4c(cc3c1C2)OCO4`, the GI50 is 21.9 µM and the TGI was 46.5 µM.
The matching figures for `CC1=C(C(=O)Nc2ccc(Cl)c(Cl)c2)C(c2cccc(Oc3ccccc3)c2)NC(=O)N1` (configuration not stated): 25.5 µM and greater than 50 µM.
The compound `CC1COC(C)(C)P(=O)(c2ccccc2)C1` (configuration not stated) registered a TGI greater than 100 µM.
The same measure, in the same setting: the same measure for `Cc1ccc(S(=O)(=O)c2ccc(N)cc2)cc1`: greater than 100 µM.
Consider `CCOP(=O)(OCC)OC1C=CC2CCC1C2` (configuration not stated), for which the TGI was greater than 100 µM.
The same measure, in the same setting: the same measure for `COC(=O)[C@H]1C=C[C@@H](C)n2c(=O)c3cc4ccccc4cc3c(=O)n21`: greater than 100 µM.
Still for that read-out and setting: the figure for `COc1cc(C=O)c(-c2cc(OC)c(OC)cc2C=O)cc1OC` is greater than 100 µM; for `N#CC(C(=O)C(=O)Nc1ccc(Cl)cc1)c1ccccc1` (configuration not stated) it is greater than 100 µM.
For `COc1c[c]([Hg][O]C(C)=O)c(OC)c(NC(=O)CC(C)=O)[c]1[Hg][O]C(C)=O`, the GI50 was 18.6 µM and the TGI amounted to 32.7 µM.
`COC(=O)/C=C1\CCC(C)O1` (configuration not stated): the TGI is greater than 100 µM.
Still for that read-out and setting: the figure for `O=C(/C=C/c1ccccc1Cl)NC1C=Nc2ccc([N+](=O)[O-])cc2NC1` (configuration not stated) is greater than 100 µM; for `CCCO/S(=N\S(=O)(=O)c1ccccc1)c1ccccc1[N+](=O)[O-]` (configuration not stated) it is greater than 100 µM; for `Cc1ccc(C)c(N=C2NC(=O)C(CC(=O)Nc3ccc(Cl)cc3Cl)S2)c1` (configuration not stated) it is greater than 100 µM.
In the case of `C/C(CC(=O)Nc1cccc(Cl)c1C)=N\NC(=O)c1ccncc1`, the TGI is greater than 100 µM.
`Cc1cc(NS(=O)(=O)c2ccc(Nc3c4ccccc4nc4c(C(=O)N5CCN(CCO)CC5)ccc(Cl)c34)cc2)no1` displayed a TGI greater than 100 µM.
As for `COc1ccc(-c2ccc(-c3ccc(C(=N)N)s3)s2)cc1`, the GI50 is 2.14 µM and the TGI turned out to be 4.3 µM.
`COC(=O)/C=C/c1c(CC=C(C)C)ncn1C` had a TGI greater than 100 µM.
With `CC(C)C(=O)Nc1nc2c(ncn2C2OC(CO)C(O)C2O)c(=O)[nH]1` (configuration not stated), the TGI was greater than 100 µM.
On the same count and under the same terms, the figure for `O=S(=O)(c1ccccc1)C1CN2OC1(S(=O)(=O)c1ccccc1)CC2c1ccc(Br)cc1` (configuration not stated) is greater than 100 µM; for `O=Cc1ccc2c(c1-c1c(C=O)ccc3c1OCO3)OCO2` it is greater than 100 µM.
For `O=C1NC(=NCCc2cccc(Cl)c2)S/C1=C\c1ccc2ncccc2c1`, the GI50 is greater than 25 µM and the TGI was greater than 25 µM.
The compound `CC(=O)O[C@H]1CCC2[C@@H]3CCC4Nc5[nH]ncc5C[C@]4(C)C3CC[C@@]21C` (some centres not stated) gave a TGI greater than 100 µM.
On the same count and under the same terms, the same measure for `Cc1cc(C)nc(NS(=O)(=O)c2ccc(NC(=O)c3cccc4c(Nc5ccc(S(N)(=O)=O)cc5)c5ccccc5nc34)cc2)n1`: 28.4 µM; for `Cc1cc(S(=O)(=O)O)c(NC(=O)C(=O)Cc2cc(=O)oc3cc(O)ccc23)cc1Cl`: greater than 100 µM.

Another assay concerns SN12C renal. Put plainly: growth of human tumour cells (NCI), 48 h.
Regarding `CC(C)C(=O)NS(=O)(=O)c1ccccc1`, the TGI is greater than 100 µM.
In the case of `COC1(OC)CC2C(=O)N(Cc3ccccc3)C1C=C2S(=O)(=O)c1ccccc1` (configuration not stated), the TGI was found to be 30.1 µM.
`CC(=O)[O][Ga]([Br])[O]C(C)=O`: the GI50 was greater than 100 µM and the TGI was greater than 100 µM.
Compound `COc1cc2c(OC)cc1CSCc1sc(C)c(c1Br)CSC2` gave a TGI greater than 100 µM.
The same measure, in the same setting: the figure for `CC(C)N(C(=O)C12C3C4C1(I)C1C2C3(I)C41C(=O)N(C(C)C)C(C)C)C(C)C` (configuration not stated) is greater than 100 µM.
Turning to `COc1cc2c(c(OC)c1OC)-c1ncc3cc4c(cc3c1C2)OCO4`, the GI50 was 13.4 µM and the TGI worked out at 40.8 µM.
The matching figures for `CC1=C(C(=O)Nc2ccc(Cl)c(Cl)c2)C(c2cccc(Oc3ccccc3)c2)NC(=O)N1` (configuration not stated): 5.28 µM and 12.5 µM.
Take `CC1COC(C)(C)P(=O)(c2ccccc2)C1` (configuration not stated): the TGI is greater than 100 µM.
Still for that read-out and setting: the figure for `CCOP(=O)(OCC)OC1C=CC2CCC1C2` (configuration not stated) is greater than 100 µM.

Values taken from PubChem BioAssay (NCI).
